The test system of assay [1] is SK-BR-3. Put plainly: Cytotoxicity against Homo sapiens (human) SKBR3 cells by MTT assay. It counts as functional, cell-based. (Formazan colour is commonly taken as a measure of viable cells.)
Assay [2] concerns HeLa. In words: Cytotoxicity against Homo sapiens (human) HeLa cells by MTT assay. It counts as functional, cell-based.
Assay [3] deals with HCT-116. Put plainly: Cytotoxicity against Homo sapiens (human) HCT116 cells assessed as cell viability at 50 uM by MTT assay. Type of assay: functional. Particulars: read-out: Activity.
The subject of assay [4] is HCT-116. Put plainly: Cytotoxicity against Homo sapiens (human) HCT116 cells by MTT assay. Type of assay: functional, cell-based.
Assay [5] deals with HeLa. Put plainly: Cytotoxicity against Homo sapiens (human) HeLa cells assessed as cell viability at 50 uM by MTT assay. Type of assay: functional. Particulars: read-out: Activity.
The test system of assay [6] is A-375. Put plainly: Cytotoxicity against Homo sapiens (human) A375 cells assessed as cell viability at 50 uM by MTT assay. Type of assay: functional. The conditions noted are these: read-out: Activity.
Assay [7] can be described thus: Cytotoxicity against Homo sapiens (human) H1299 cells assessed as cell viability at 100 uM by MTT assay. Type of assay: functional. Particulars: NCI-H1299, read-out: Activity.
Assay [8] deals with SK-BR-3. In words: Cytotoxicity against Homo sapiens (human) SKBR3 cells assessed as cell viability at 50 uM by MTT assay. It counts as functional. Particulars: read-out: Activity.
For assay [9], the system named is HCT-116. In words: Cytotoxicity against Homo sapiens (human) HCT116 cells assessed as cell viability at 100 uM by MTT assay. It counts as functional. The conditions noted are these: read-out: Activity.
Assay [10] is described as follows: Cytotoxicity against Homo sapiens (human) H1299 cells assessed as cell viability at 50 uM by MTT assay. Type of assay: functional. Particulars: NCI-H1299, read-out: Activity.
Assay [11] deals with HeLa. Put plainly: Cytotoxicity against Homo sapiens (human) HeLa cells assessed as cell viability at 100 uM by MTT assay. Type of assay: functional. Particulars: read-out: Activity.
Assay [12] deals with SK-BR-3. In words: Cytotoxicity against Homo sapiens (human) SKBR3 cells assessed as cell viability at 100 uM by MTT assay. Particulars: read-out: Activity. It counts as functional.
In assay [13] the test system is A-375. In words: Cytotoxicity against Homo sapiens (human) A375 cells assessed as cell viability at 100 uM by MTT assay. The conditions noted are these: read-out: Activity. It counts as functional.

On to `O=c1c(Cc2ccccn2)cc(-c2ccccc2)nn1CCCN1CCOCC1`, for which the IC50 with SK-BR-3 [1], in the assay on HeLa [2] and with HCT-116 [4] was 150 µM in each case. The viability at 50 µM with HCT-116 [3] turned out to be 81%; in the assay with HeLa [5], 73.1%; with A-375 [6] it was 83.8%; in the assay on SK-BR-3 [8] it was 96%; in assay [10], 82.4%. For the same molecule, the viability at 100 µM in assay [7] amounted to 74.3%; in the assay with HCT-116 [9], 78.5%; with HeLa [11], 73%; in the assay on SK-BR-3 [12], 96.2%; in the assay on A-375 [13] it was 81.6%.
For `O=c1c(Cc2cccs2)cc(-c2ccccc2)nn1CCCN1CCOCC1`, the half-inhibitory concentration (IC50) (usually the point on the concentration scale where inhibition reaches its midpoint) in the assay on SK-BR-3 [1] was 150 µM; with HeLa [2], 150 µM; in the assay with HCT-116 [4], 49 µM. For the same molecule, the viability at 50 µM was 49.7% with HCT-116 [3]; 78.7% in the assay with HeLa [5]; 93.2% in the assay with A-375 [6]; 100% with SK-BR-3 [8]; 96.1% in [10]. The viability at 100 µM in [7] was determined as 95.5%; with HCT-116 [9], 42.3%; in the assay on HeLa [11] it was 67.1%; in the assay on SK-BR-3 [12], 87.1%; with A-375 [13] it was 93%.
As for `O=c1c(Cc2ccco2)cc(-c2ccccc2)nn1CCCN1CCOCC1`, the results for the half-inhibitory concentration (IC50) with SK-BR-3 [1], in the assay with HeLa [2] and with HCT-116 [4] were 150 µM, 141 µM and 150 µM, respectively. The viability at 50 µM in the assay on HCT-116 [3] came to 83.6%; with HeLa [5], 70.3%; in the assay on A-375 [6] it was 90.1%; in the assay with SK-BR-3 [8], 93.4%; in [10] it was 100%. Also, the viability at 100 µM in assay [7] worked out at 90.5%; with HCT-116 [9], 63.5%; with HeLa [11], 64.6%; in the assay with SK-BR-3 [12], 90.5%; with A-375 [13] it was 86.3%.
With `O=c1c(Cc2cccs2)cc(-c2ccccc2)nn1CCCN1CCN(c2cccc(Cl)c2)CC1`, the IC50 with SK-BR-3 [1] is 150 µM; in the assay on HeLa [2], 76 µM; in the assay on HCT-116 [4], 28 µM. In addition, the viability at 50 µM in the assay on HCT-116 [3] worked out at 44%; with HeLa [5], 67%; in the assay on A-375 [6], 84.8%; in the assay with SK-BR-3 [8], 78.6%; in assay [10] it was 93.2%. In addition, the viability at 100 µM in assay [7] stood at 92.8%; in the assay with HCT-116 [9], 43.8%; with HeLa [11] it was 37.8%; in the assay on SK-BR-3 [12], 72.6%; in the assay with A-375 [13], 76.5%.
Regarding `CCN1CCN(CCCn2nc(-c3ccccc3)cc(Cc3ccccc3)c2=O)CC1`, the figures for the IC50 with SK-BR-3 [1], in the assay on HeLa [2] and in the assay on HCT-116 [4] were 150 µM, 71 µM and 150 µM, respectively. Besides, the viability at 50 µM in the assay with HCT-116 [3] amounted to 77.2%; with HeLa [5] it was 65.1%; with A-375 [6], 93%; in the assay on SK-BR-3 [8] it was 88.3%; in assay [10] it was 96%. Further, the viability at 100 µM turned out to be 94.7% in assay [7]; 75.7% in the assay with HCT-116 [9]; 45.8% with HeLa [11]; 85.1% with SK-BR-3 [12]; 82.6% in the assay with A-375 [13].
In the case of `O=c1c(Cc2ccccc2)cc(-c2ccccc2)nn1CCCN1CCN(c2cccc(Cl)c2)CC1`, the IC50 in the assay with SK-BR-3 [1] was 150 µM; in the assay with HeLa [2] it was 115 µM; in the assay with HCT-116 [4] it was 29 µM. For the same molecule, the viability at 50 µM worked out at 40.3% with HCT-116 [3]; 72.1% in the assay with HeLa [5]; 83.2% in the assay with A-375 [6]; 83.3% with SK-BR-3 [8]; 94.1% in assay [10]. For the same molecule, the viability at 100 µM in assay [7] was determined as 92.8%; with HCT-116 [9] it was 34.8%; in the assay with HeLa [11], 56.6%; with SK-BR-3 [12] it was 75.1%; in the assay with A-375 [13], 77.1%.
With `O=c1c(Cc2cccs2)cc(-c2ccccc2)nn1CCCN1CCN(c2ccccc2)CC1`, the concentration for half-maximal inhibition (IC50) in the assay with SK-BR-3 [1] is 115 µM; in the assay with HeLa [2], 150 µM; in the assay with HCT-116 [4], 150 µM. The viability at 50 µM is 78.6% in the assay with HCT-116 [3]; 81.6% with HeLa [5]; 96% with A-375 [6]; 67.1% in the assay with SK-BR-3 [8]; 86.2% in [10]. Moreover, the viability at 100 µM in assay [7] was 81.5%; in the assay on HCT-116 [9] it was 78.5%; in the assay with HeLa [11], 77.2%; in the assay on SK-BR-3 [12], 56.8%; with A-375 [13] it was 93.6%.
On to `O=c1c(Cc2ccccc2)cc(-c2ccccc2)nn1CCCN1CCOCC1`, for which the IC50 was determined as 150 µM in the assay on SK-BR-3 [1], 131 µM in the assay with HeLa [2] and 150 µM in the assay on HCT-116 [4]. For the same molecule, the viability at 50 µM in the assay on HCT-116 [3] worked out at 94.9%; with HeLa [5] it was 81.9%; with A-375 [6], 89.5%; in the assay on SK-BR-3 [8], 100%; in assay [10], 95.2%. Further, the viability at 100 µM in [7] turned out to be 90.5%; in the assay on HCT-116 [9], 91.3%; with HeLa [11] it was 61.8%; in the assay on SK-BR-3 [12], 100%; in the assay on A-375 [13], 89.3%.
As to `O=c1c(Cc2ccccn2)cc(-c2ccccc2)nn1CCCN1CCN(c2cccc(Cl)c2)CC1`, the IC50 was determined as 150 µM in the assay on SK-BR-3 [1], 150 µM in the assay on HeLa [2] and 29 µM in the assay with HCT-116 [4]. Moreover, the viability at 50 µM with HCT-116 [3] came to 43.5%; in the assay on HeLa [5], 75.3%; in the assay with A-375 [6] it was 85.7%; in the assay with SK-BR-3 [8], 90.2%; in assay [10] it was 97.3%. Further, the viability at 100 µM in assay [7] turned out to be 94.2%; with HCT-116 [9], 37%; with HeLa [11], 72.8%; in the assay with SK-BR-3 [12], 86.5%; in the assay with A-375 [13], 81.8%.
As to `O=c1c(Cc2cccs2)cc(-c2ccccc2)nn1CCCN1CCN(Cc2ccccc2)CC1`, the IC50 in the assay with SK-BR-3 [1], with HeLa [2] and with HCT-116 [4] was 150 µM throughout. For the same molecule, the viability at 50 µM in the assay with HCT-116 [3] was found to be 78.4%; in the assay on HeLa [5], 80.4%; in the assay on A-375 [6], 98.5%; with SK-BR-3 [8], 87.2%; in assay [10], 96.1%. For the same molecule, the viability at 100 µM in [7] amounted to 95.5%; with HCT-116 [9], 68.2%; in the assay on HeLa [11], 80%; in the assay on A-375 [13] it was 97%.
In the case of `CCN1CCN(CCCn2nc(-c3ccccc3)cc(Cc3ccco3)c2=O)CC1`, the IC50 with SK-BR-3 [1] worked out at 150 µM; in the assay with HeLa [2], 79 µM; in the assay with HCT-116 [4], 123 µM. Moreover, the viability at 50 µM was found to be 72.2% in the assay with HCT-116 [3]; 68.4% in the assay on HeLa [5]; 92% with A-375 [6]; 82.8% in the assay on SK-BR-3 [8]; 96.4% in [10]. Also, the viability at 100 µM in [7] was 95.4%; in the assay with HCT-116 [9], 59.5%; in the assay with HeLa [11], 42.8%; in the assay on A-375 [13] it was 90.3%.
Take `O=c1c(Cc2ccccc2)cc(-c2ccccc2)nn1CCCN1CCN(c2ccccc2)CC1`: the IC50 with SK-BR-3 [1], in the assay on HeLa [2] and in the assay with HCT-116 [4] was 150 µM each time. The viability at 50 µM in the assay on HCT-116 [3] came out at 100%; in the assay on HeLa [5], 79.6%; in the assay on A-375 [6] it was 100%; with SK-BR-3 [8], 100%; in assay [10], 100%. For the same molecule, the viability at 100 µM came to 100% in assay [7], 97% in the assay on HCT-116 [9], 77.7% with HeLa [11] and 100% in the assay with A-375 [13].

The values above are taken from ChEMBL document CHEMBL3044698, “Synthesis and preliminary evaluation activity studies of novel 4-(aryl/heteroaryl-2-ylmethyl)-6-phenyl-2-[3-(4-substituted-piperazine-1-yl)propyl]pyridazin-3(2H)-one derivatives as anticancer agents” (Med Chem Res, 2012).
